This note sets out measurements from ChEMBL document CHEMBL4680064, “Natural product inspired optimization of a selective TRPV6 calcium channel inhibitor” (RSC Med Chem, 2020).

The data set has as its target T1, 5-hydroxytryptamine receptor 1A (Homo sapiens, UniProt P08908).
T1 sequence (P08908 whole entry): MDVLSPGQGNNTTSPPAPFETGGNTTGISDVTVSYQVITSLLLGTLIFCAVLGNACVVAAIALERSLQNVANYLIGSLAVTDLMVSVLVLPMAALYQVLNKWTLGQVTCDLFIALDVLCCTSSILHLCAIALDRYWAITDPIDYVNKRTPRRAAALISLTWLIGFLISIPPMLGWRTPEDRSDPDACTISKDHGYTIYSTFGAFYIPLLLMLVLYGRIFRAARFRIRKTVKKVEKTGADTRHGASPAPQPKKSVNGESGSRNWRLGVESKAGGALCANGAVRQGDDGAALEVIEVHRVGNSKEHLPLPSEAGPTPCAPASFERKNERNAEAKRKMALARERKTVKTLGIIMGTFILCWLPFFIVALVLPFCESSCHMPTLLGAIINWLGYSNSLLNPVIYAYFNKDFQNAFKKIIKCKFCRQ
In words: Inhibition of human serotonin 5HT-1A receptor at 10 uM.

On to `O=c1ccc(CN2CCN([C@H]3CC[C@@](O)(c4cccc(C(F)(F)F)c4)CC3)CC2)c[nH]1`, for which the “inhibition (INH)” value was “Not Active”.
